Laboratory results published in patent US11291667B2, “Combination therapy involving diaryl macrocyclic compounds” (TURNING POINT THERAPEUTICS, INC., priority 2017, dated 2022).
Like-named read-outs stand apart in the source and are kept apart here.

Tests used:
[1] = molecular target: FAK (Homo sapiens (Human), UniProt Q05397); assay: Enzymatic kinase inhibition assay 1 (Eurofins KinaseProfiler); type: biochemical; details: kinase activity remaining as % of DMSO control; 1 μM compound; ATP 10 μM
Sequence of FAK (Q05397 whole entry): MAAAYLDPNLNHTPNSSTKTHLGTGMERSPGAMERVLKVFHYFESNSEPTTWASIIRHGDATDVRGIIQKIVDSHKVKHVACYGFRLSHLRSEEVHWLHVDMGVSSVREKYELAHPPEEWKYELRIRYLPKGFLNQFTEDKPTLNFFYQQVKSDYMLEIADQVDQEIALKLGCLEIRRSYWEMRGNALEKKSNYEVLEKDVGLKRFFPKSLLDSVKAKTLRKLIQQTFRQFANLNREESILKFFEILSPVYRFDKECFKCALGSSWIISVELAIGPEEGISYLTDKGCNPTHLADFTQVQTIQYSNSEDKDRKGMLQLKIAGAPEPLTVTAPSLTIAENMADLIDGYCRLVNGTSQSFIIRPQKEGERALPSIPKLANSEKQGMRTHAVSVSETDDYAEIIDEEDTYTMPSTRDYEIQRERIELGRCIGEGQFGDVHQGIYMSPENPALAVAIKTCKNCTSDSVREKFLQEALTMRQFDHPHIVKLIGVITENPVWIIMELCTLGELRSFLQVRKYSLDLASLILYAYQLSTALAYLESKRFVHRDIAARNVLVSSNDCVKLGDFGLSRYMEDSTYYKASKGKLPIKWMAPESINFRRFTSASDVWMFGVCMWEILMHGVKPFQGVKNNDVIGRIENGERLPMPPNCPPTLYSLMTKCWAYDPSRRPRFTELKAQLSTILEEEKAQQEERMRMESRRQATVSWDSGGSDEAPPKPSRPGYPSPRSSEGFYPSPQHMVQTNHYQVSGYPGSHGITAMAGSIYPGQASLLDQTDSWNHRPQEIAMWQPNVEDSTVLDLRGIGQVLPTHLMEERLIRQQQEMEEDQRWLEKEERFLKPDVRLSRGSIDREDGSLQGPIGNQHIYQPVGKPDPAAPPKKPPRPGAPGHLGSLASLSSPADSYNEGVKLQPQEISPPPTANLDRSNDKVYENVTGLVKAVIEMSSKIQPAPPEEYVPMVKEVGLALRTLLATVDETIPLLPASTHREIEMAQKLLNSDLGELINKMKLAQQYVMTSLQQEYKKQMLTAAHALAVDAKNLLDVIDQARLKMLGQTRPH
Description: (§1) The enzymatic kinase inhibition against FAK, SRC and JAK2 were evaluated at Eurofins using the Erofins KinaseProfiler™ panel. All compounds were prepared to a working stock of 50× final assay concentration in 100% DMSO. Where appropriate, more concentrated stocks were diluted manually to 50× using 100% DMSO. Compounds supplied as powders were reconstituted to a 10 mM stock in 100% DMSO before further dilution to 50×. The required volume of the 50× stock of test compound was added to the assay well, before a reaction mix containing the enzyme and substrate was added. The reaction was initiated by the addition of ATP at 10 μM concentration. There was no pre-incubation of the compound with the enzyme/substrate mix prior to ATP addition. Data are handled using a custom built in-house analysis software. Results are expressed as kinase activity remaining, as a percentage of the DMSO control. This is calculated using the following formula: […].

[2] = molecular target: JAK2 (Homo sapiens (Human), UniProt O60674); assay: as above; type: biochemical; details: kinase activity remaining as % of DMSO control; 1 μM compound; ATP 10 μM
Sequence of JAK2 (O60674 whole entry): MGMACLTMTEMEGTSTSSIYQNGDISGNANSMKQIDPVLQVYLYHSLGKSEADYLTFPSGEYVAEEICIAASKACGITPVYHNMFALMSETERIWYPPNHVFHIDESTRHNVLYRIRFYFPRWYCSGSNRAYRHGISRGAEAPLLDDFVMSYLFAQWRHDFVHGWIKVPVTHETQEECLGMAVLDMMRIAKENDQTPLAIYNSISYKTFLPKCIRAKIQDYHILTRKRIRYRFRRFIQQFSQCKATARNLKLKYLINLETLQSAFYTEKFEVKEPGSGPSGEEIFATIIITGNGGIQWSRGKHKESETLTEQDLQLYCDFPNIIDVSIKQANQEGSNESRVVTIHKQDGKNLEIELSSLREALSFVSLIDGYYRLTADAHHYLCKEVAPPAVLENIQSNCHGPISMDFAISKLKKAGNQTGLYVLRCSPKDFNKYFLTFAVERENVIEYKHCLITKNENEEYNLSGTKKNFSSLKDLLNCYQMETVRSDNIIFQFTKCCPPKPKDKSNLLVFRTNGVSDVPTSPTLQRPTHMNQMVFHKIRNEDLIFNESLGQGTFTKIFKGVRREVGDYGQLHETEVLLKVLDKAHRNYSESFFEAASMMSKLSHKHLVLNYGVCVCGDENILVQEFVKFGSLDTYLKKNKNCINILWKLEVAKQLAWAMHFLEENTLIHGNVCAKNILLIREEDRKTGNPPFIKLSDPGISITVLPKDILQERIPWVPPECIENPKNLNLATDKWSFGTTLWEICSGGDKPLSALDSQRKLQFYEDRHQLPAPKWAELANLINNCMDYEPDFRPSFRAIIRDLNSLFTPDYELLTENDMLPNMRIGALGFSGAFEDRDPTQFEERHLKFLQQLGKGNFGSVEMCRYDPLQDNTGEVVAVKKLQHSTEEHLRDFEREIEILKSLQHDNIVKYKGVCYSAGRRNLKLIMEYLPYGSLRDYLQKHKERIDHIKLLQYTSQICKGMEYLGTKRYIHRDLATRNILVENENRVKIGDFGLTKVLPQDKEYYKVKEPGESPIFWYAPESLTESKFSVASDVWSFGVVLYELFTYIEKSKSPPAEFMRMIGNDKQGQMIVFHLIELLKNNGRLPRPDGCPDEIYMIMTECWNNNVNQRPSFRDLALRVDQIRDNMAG
Description: as §1

[3] = molecular target: SRC (Homo sapiens (Human), UniProt P12931); assay: as above; type: biochemical; details: kinase activity remaining as % of DMSO control; 1 μM compound; ATP 10 μM
Sequence of SRC (P12931 whole entry, looked up): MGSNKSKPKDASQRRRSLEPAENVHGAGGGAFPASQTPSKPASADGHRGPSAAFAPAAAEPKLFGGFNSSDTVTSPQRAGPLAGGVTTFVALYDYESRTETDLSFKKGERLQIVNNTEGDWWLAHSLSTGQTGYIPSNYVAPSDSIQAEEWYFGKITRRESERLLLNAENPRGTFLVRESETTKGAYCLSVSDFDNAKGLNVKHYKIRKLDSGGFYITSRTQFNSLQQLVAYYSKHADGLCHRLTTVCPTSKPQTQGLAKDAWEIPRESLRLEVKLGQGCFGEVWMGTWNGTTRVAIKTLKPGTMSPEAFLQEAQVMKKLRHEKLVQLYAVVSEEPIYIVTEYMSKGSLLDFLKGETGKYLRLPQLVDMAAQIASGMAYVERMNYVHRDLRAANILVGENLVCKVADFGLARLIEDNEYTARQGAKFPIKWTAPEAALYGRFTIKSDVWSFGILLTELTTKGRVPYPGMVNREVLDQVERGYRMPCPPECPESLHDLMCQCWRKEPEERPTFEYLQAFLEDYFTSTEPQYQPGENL
Description: as §1

[4] = system: NCI-H1975 cells; assay: NCI-H1975 lung cancer cell proliferation assay (CellTiter-Glo); type: cell-based, Human; details: for IC50: Homo sapiens, NCI-H1975, 72 h; for inhibition of NCI-H1975 cell proliferation (in words): NCI-H1975 cells, 72 hours
Description: Cell proliferation was measured using CellTiter-Glo luciferase-based ATP detection assay (Promega) following the manufactures's protocol. IC50 determinations were performed using GraphPad Prism software (GraphPad, Inc., San Diego, Calif.).

[5] = system: phosphorylated EGFR; assay: Immunoblotting for cellular kinase phosphorylation; type: cell-based, Human
[6] = system: phosphorylated paxillin; assay: Immunoblotting for cellular kinase phosphorylation; type: cell-based, Human; details: NCI-H1975 cells, 4 hours; for inhibition of phosphorylation of paxillin: 1 μM concentration
Description: (§2) NSCLC NCI-H1975 cells (harboring EGFR L858R/T790M double mutations) were cultured in RPMI medium, supplemented with 10% fetal bovine serum and 100 U/mL of penicillin/streptomycin. […] Cells were collected after treatment and lysed in RIPA buffer (50 mM Tris, pH 7.4, 150 mM NaCl, 1% NP-40, 0.5% Deoxycholate, 0.1% SDS) supplemented with 10 mM EDTA, 1× Halt protease and phosphatase inhibitors (Thermo Scientific). […] Membranes were incubated with chemiluminescent substrate for 5 min at room temperature (SuperSignal West Femto, Thermo Scientific). The chemiluminescent images were acquired with a C-DiGit Imaging System (LI-COR Biosciences).

[7] = system: phosphorylated STAT3; assay: Immunoblotting for cellular kinase phosphorylation; type: cell-based, Human; details: NCI-H1975 cells, 4 hours, 1 μM concentration
Description: as §2

[8] = system: phosphorylated AKT; assay: Immunoblotting for cellular kinase phosphorylation; type: cell-based, Human; details: NCI-H1975 cells, 4 hours, 1 μM concentration
Description: as §2

[9] = system: phosphorylated ERK; assay: Immunoblotting for cellular kinase phosphorylation; type: cell-based, Human; details: NCI-H1975 cells, 4 hours, 1 μM concentration
Description: as §2

[10] = read-out: anti-proliferation IC50
[11] = read-out: anti-proliferation IC50 of EGFR inhibitor with Compound 1 at 3 μM

% remaining FAK at 1 μM testing comp. [1] [%]	% remaining JAK2 at 1 μM testing comp. [2] [%]	% remaining SRC at 1 μM testing comp. [3] [%]	Compound	IC50 [4, 10] [nM]	inhibition of NCI-H1975 cell proliferation (in words) [4]	inhibition of phosphorylation of EGFR ([5]; NCI-H1975 cells, 4 hours, 1 μM concentration)	inhibition of EGFR phosphorylation ([5]; NCI-H1975 cells, 4 hours, dose response (FIG. 11))	inhibition of phosphorylation of paxillin [6]	inhibition of phosphorylation of SRC/FAK substrate paxillin ([6]; dose response (FIG. 11))	inhibition of phosphorylation of STAT3 [7]	inhibition of phosphorylation of AKT [8]	inhibition of phosphorylation of ERK [9]	IC50 [4, 11] [nM]	IC50 ([4]; read-out: anti-proliferation IC50 (partial)) [nM]	inhibition of phosphorylation of EGFR [5]
−1	3	2	C[C@H]1Nc2ccn3ncc(c3n2)C(=O)NC[C@@H](O)COc2ccc(F)cc21 [Compound 2, (7R,14R)-12-fluoro-7-hydroxy-14-methyl-5,6,7,8,14,15-hexahydro-4H-1,16-ethenopyrazolo[4,3-g][1,5,9,11]benzoxatriazacyclotetradecin-4-one]												
−2	6	8	O=C1NCCCOc2ccc(F)cc2CCc2ccn3ncc1c3n2 [Compound 3, 12-fluoro-5,6,7,8,14,15-hexahydro-4H-1,16-ethenopyrazolo[4,3-g][1,5,9]benzoxadiazacyclotetradecin-4-one]												
			C#Cc1cccc(Nc2ncnc3cc(OCCOC)c(OCCOC)cc23)c1 [erlotinib]	6240	not sensitive			minimum inhibition		minimum inhibition	minimum inhibition	minimum inhibition	1000		
			C=CC(=O)Nc1cc(Nc2nccc(-c3cn(C)c4ccccc34)n2)c(OC)cc1N(C)CCN(C)C [osimertinib]		[…]			minimum inhibition		minimum inhibition	significant inhibition	significant inhibition	[…]	[…]	significant inhibition

Compound	% remaining FAK at 1 μM testing comp. [1] [%]	% remaining JAK2 at 1 μM testing comp. [2] [%]	% remaining SRC at 1 μM testing comp. [3] [%]	IC50 [4, 10] [nM]	inhibition of NCI-H1975 cell proliferation (in words) [4]	inhibition of phosphorylation of EGFR ([5]; NCI-H1975 cells, 4 hours, 1 μM concentration)	inhibition of EGFR phosphorylation ([5]; NCI-H1975 cells, 4 hours, dose response (FIG. 11))	inhibition of phosphorylation of paxillin [6]	inhibition of phosphorylation of SRC/FAK substrate paxillin ([6]; dose response (FIG. 11))	inhibition of phosphorylation of STAT3 [7]	inhibition of phosphorylation of AKT [8]	inhibition of phosphorylation of ERK [9]	IC50 [4, 11] [nM]	IC50 ([4]; read-out: anti-proliferation IC50 (partial)) [nM]	inhibition of phosphorylation of EGFR [5]
C[C@H]1CNC(=O)c2cnn3ccc(nc23)N[C@H](C)c2cc(F)ccc2O1 [Compound 1, (7S,13R)-11-fluoro-7,13-dimethyl-6,7,13,14-tetrahydro-1,15-ethenopyrazolo[4,3-f][1,4,8,10]benzoxatriazacyclotridecin-4(5H)-one]	−1	0	1	4000	only partial inhibition activity	minimum inhibition	no inhibition	significant inhibition	dose-dependently inhibited	significant inhibition	minimum inhibition	minimum inhibition			
